The NIST ThermoML archive (doi:10.1016/j.fluid.2015.07.026)

Details: Liquid, Pendant drop shape

[Ar] [argon] + O
interfacial tension [mN/m]
Details	2000 kPa	5000 kPa	10000 kPa	15000 kPa	20000 kPa	25000 kPa	30000 kPa	40000 kPa	50000 kPa
298.01 K	71.6	69.7	67.4	65.3	63.3	61.9	60.7	58.6	57
323.16 K	67.1	65.7	63.2	61.1	59.4	57.9	56.5	54.5	53.3
373.28 K	58.5	57.2	55.5	53.9	52.7	51.6	50.8	49.3	48.2
448.07 K	43.1	42.5	41.3	40.3	39.5	38.8	38.3	37.3	36.6
473.53 K	37.3	36.5	35.6	34.8	34.1	33.7	33.1	32.9	32.8
